The record followed here is publication PMC8253140 (Drug Delivery, 2017).

Series [1] has as its system A549 cells. The experiment in a line: Cytotoxicity study, MTT colorimetric assay. The note with it: for IC50 value as % of the IC50 of PTX: 24 h, GraphPad Prism, p < 0.01 vs PTX. As to the method:
The inhibitory activities of the drug samples on cell growth were evaluated using a 3-(4,5-dimethylthiazol-2-yl)-2,5-diphenyltetrazolium bromide (MTT) colorimetric assay. A549 and A549T cells were harvested by trypsinization and resuspended at a concentration of 2 × 10^4 cells/mL in fresh culture medium. Then, the cells were seeded at a density of 5000 cells per well in 96-well plates. […] The concentration of the drugs ranged from 0.1 μM to 100 μM. After 24 h of incubation, the drug-containing media were abandoned, and 20 μL of MTT (5 mg/mL) solution was added to each well. The plate was incubated for an additional 4 h, and then, […] of DMSO was added to each well to dissolve any formed purple formazan crystals. The plates were vigorously shaken before measuring the relative color intensity. The absorbance at 570 nm of each well was measured with a plate reader.

Series [2] concerns A549T cells. In words: Cytotoxicity study, MTT colorimetric assay. Format: cell-based. As to conditions: for IC50 value as % of the IC50 of PTX: 24 h, GraphPad Prism, p < 0.01 vs PTX.
Experimental: The inhibitory activities of the drug samples on cell growth were evaluated using a 3-(4,5-dimethylthiazol-2-yl)-2,5-diphenyltetrazolium bromide (MTT) colorimetric assay. A549 and A549T cells were harvested by trypsinization and resuspended at a concentration of 2 × 10^4 cells/mL in fresh culture medium. Then, the cells were seeded at a density of 5000 cells per well in 96-well plates. […] The concentration of the drugs ranged from 0.1 μM to 100 μM. After 24 h of incubation, the drug-containing media were abandoned, and 20 μL of MTT (5 mg/mL) solution was added to each well. The plate was incubated for an additional 4 h, and then, 200 mL of DMSO was added to each well to dissolve any formed purple formazan crystals. The plates were vigorously shaken before measuring the relative color intensity. The absorbance at 570 nm of each well was measured with a plate reader.
Series [3] has as its system A549 cells. In words: Cell apoptosis detection, annexin V-FITC/PI flow cytometry. Format: cell-based. As to conditions: 10 μM, 48 h, triplicate. As to the method: (§1) Cell apoptosis was determined by an annexin V-FITC/PI assay. The externalization of phosphatidylserine, a result of early stage apoptosis, was detected by FITC-annexin V protein staining, and the membrane damage due to late-stage apoptosis was detected by the binding of PI to nuclear DNA. Briefly, 2 × 10^5 A549 and A549T cells were plated in 6-well plates and incubated for 24 h. After exposure to the different drugs at a concentration of 10 μM for 48 h, the cells were harvested by trypsinization, washed in PBS twice and incubated in the dark for 10 min at room temperature in 500 μL of binding buffer containing annexin V-FITC (1 μg/mL) and PI (1 μg/mL). The cells were immediately analyzed by flow cytometry (Becton Dickinson, Franklin Lakes, NJ). The fluorescence intensity of annexin V-FITC was measured at an excitation/emission wavelength of 488/530 nm and that of PI was measured at an excitation/emission wavelength of 488/617 nm. Approximately 10 000 cells were analyzed in each of the samples. Each assay was repeated in triplicate.

Series [4] concerns A549T cells. The series is described as above. The note with it: 10 μM, 48 h, triplicate. Format: cell-based. As to the method:
as §1

Series [5] concerns A549T cells. Format: cell-based. The note with it: 5 μM, 48 h, triplicate. On the procedure: After that, the cells were harvested by trypsinization, washed in PBS twice, and fixed in 70% cold ethanol for 24 h at 4 °C. The fixed cells were washed in cold PBS and then resuspended in 0.5 mL of PBS containing 50 μg/mL PI, 0.1% Triton-X-100, 0.1% sodium citrate, and 100 μg/mL RNase. After incubation at 4 °C in the dark for 30 min, the fluorescence-activated cells were sorted. The cellular DNA content was analyzed by flow cytometry (Becton Dickinson, Franklin Lakes, NJ). Each analysis contained at least 10 000 cells. […] The percentages of cells in different cell cycle phases were then recorded. Each experiment was performed in triplicate, and the results were expressed as the mean ± SD.

A further series has as its system A549 tumor. Format: in vivo, BALB/c nude mice. As to conditions: A549 tumor-bearing nude mice, 1000 μM, 100 μL, peritumoral injection three times over 8 d, six mice per group; for decrease of tumor volume compared with PTX: from 22 to 30 d; for tumor inhibition rate: tumors dissected and weighed after 24 or 30 d. The text has this: (§2) The protocol to evaluate the in vivo antitumor efficacy of the PTX-CPP conjugates was approved by the ethics committee of Fudan University. Four-week-old female BALB/c nude mice were purchased and housed in the Animal Care Facilities in the School of Pharmacy, Fudan University. BALB/c mice bearing subcutaneous tumors were used as an animal model for the evaluation of the anticancer activities of PTX-LMWP and PTX-TAT. The subcutaneous tumor xenograft model was established by inoculating 2 × 10^6 A549 or A549T cells (in 100 μL of cell culture medium) into the subcutaneous tissue of the armpit of the right anterior limb (Gu et al., [2014]). Tumor size was measured with Vernier calipers for the largest (length) and smallest (width) superficial visible diameters of the protruding tumor mass through the skin. Tumor volumes were calculated according to the following formula: volume = 0.52 × W^2×L, where W and L represent the width and the length, respectively (Lee et al., [2011]). The drugs were administered 2 weeks after tumor implantation, when the size of the tumors reached approximately 100–150 mm^3. […] Each experimental group contained six mice. The mice were treated (100 μL volume) three times over 8 d via peritumoral injection. Tumor volumes were measured at 2-d intervals. At the end of the experiment, the mice were sacrificed, and necropsies were performed. The tumors were removed, weighed and fixed with formalin.

In another series the test system is A549T tumor. Format: in vivo, BALB/c nude mice. As to conditions: 1000 μM; for tumor growth (tumor volume) compared with the control: A549T tumor-bearing nude mice, 100 μL, peritumoral injection three times over 8 d; for tumor inhibition rate: mouse, in vivo.
Excerpt: as §2

The test system of series [6] is A549 cells. In words: Cellular uptake assay (intracellular drug accumulation). Format: cell-based. As to conditions: 20 μM, incubation 15 min to 4 h, UPLC. As to the method:
The cellular uptake experiment was implemented basing on the protocol designed by Meng with some modifications (Meng et al., [2011]). Briefly, A549 and A549T cells were cultivated in chambered 24-well plates with 5% CO2 at 37 °C for 48 h. Then, the adherent cells were washed twice with PBS. Each of the three drugs was diluted in cell medium at concentrations of 10 μM and 20 μM and added to the chambers. The cells were incubated for 2 h and washed four times with PBS after incubation. After that, the cells were scraped from the wells and quantitatively transferred to Eppendorf centrifuge tubes. The resulting cell/saline suspensions were sonicated for 20 cycles of 2 s each with 2 s of rest between each cycle using a probe sonicator. The lysed cell solution was centrifuged at 7000 g for 30 min at 4 °C. Then, 100 μL of the supernatant was withdrawn carefully and tested with UPLC (BEH C18, 1.7 μm, 2.1 × 50 mm). The flow rate was 0.3 mL/min, and the mobile phase consisted of 55% solvent A (PBS, pH = 5) and 45% solvent B (acetonitrile). To further test the change in cellular uptake against incubation time, the drugs (20 μM) were added to the cells, and the cells were then incubated for different times, ranging from 15 min to 4 h. The other steps of the experiment were performed as described above.

Series [7] relates to A549T cells. The experiment in a line: Mitochondrial membrane potential (Δψm) determination, JC-1 flow cytometry. Format: cell-based. The note with it: 10 μM, 48 h, triplicate. On the procedure:
Changes in the mitochondrial membrane potential (Δψm) were detected using JC-1 and analyzed with flow cytometry. Briefly, A549 and A549T cells were seeded at a density of 1 × 10^5 cells/mL in 6-well plates and exposed to the drugs (10 μM) for 48 h. The control experiments were performed by adding only culture medium. Then, the cells were harvested by trypsinization, washed in PBS twice, incubated with JC-1 ([…]) at 37 °C for 10 min in the dark, and finally analyzed by flow cytometry (Becton Dickinson, Franklin Lakes, NJ). Each assay was repeated in triplicate. JC-1 accumulates in mitochondria that have a high membrane potential and then dimerizes due to the high local concentrations achieved. Dimerized JC-1 emits red fluorescence, while monomeric JC-1 emits green fluorescence. The results are expressed as a ratio of red to green fluorescence.

Where two headings read alike, the source gives them in different places. Residues, ends and D or L forms follow the SMILES beside them. No end group written: not given here. *: point of attachment. Paclitaxel(2'-O-succinyl) = CC(=O)O[C@H]1C(=O)[C@@]2(C)[C@H]([C@H](OC(=O)c3ccccc3)[C@]3(O)C[C@H](OC(=O)[C@H](OC(=O)CCC(=O)*)[C@@H](NC(=O)c4ccccc4)c4ccccc4)C(C)=C1C3(C)C)[C@]1(OC(C)=O)CO[C@@H]1C[C@@H]2O

As for `CC(=O)O[C@H]1C(=O)[C@@]2(C)[C@H]([C@H](OC(=O)c3ccccc3)[C@]3(O)C[C@H](OC(=O)[C@H](OC(=O)CCC(=O)NCCN4C(=O)CC(SC[C@H](N)C(=O)NCC(=O)NCC(=O)NCC(=O)N[C@@H](Cc5ccc(O)cc5)C(=O)NCC(=O)N[C@@H](CCCNC(=N)N)C(=O)N[C@@H](CCCCN)C(=O)N[C@@H](CCCCN)C(=O)N[C@@H](CCCNC(=N)N)C(=O)N[C@@H](CCCNC(=N)N)C(=O)N[C@@H](CCC(N)=O)C(=O)N[C@@H](CCCNC(=N)N)C(=O)N[C@@H](CCCNC(=N)N)C(=O)N[C@@H](CCCNC(=N)N)C(=O)O)C4=O)[C@@H](NC(=O)c4ccccc4)c4ccccc4)C(C)=C1C3(C)C)[C@]1(OC(C)=O)CO[C@@H]1C[C@@H]2O` (stereo partly drawn) [PTX-TAT], in the series with A549 cells [1] (A549 cells, MTT), the “IC50 value as % of the IC50 of PTX” value is given as 47.2%. Further, in the series with A549T cells [2] (A549T cells, MTT), the “IC50 value as % of the IC50 of PTX” value is 39.5%. Further, in the series on A549 cells [3], the “percentage of late apoptotic cells (PI+/annexin V+)” value (shortened to “percentage of late apoptotic cells”) is listed as 72.57%. Moreover, in the series on A549T cells [4], the “percentage of early apoptotic cells (PI−/annexin V+)” value was found to be 23.15% and the “percentage of late apoptotic cells” value is recorded as 54.20%. Besides, in the series on A549T cells [5], the “effect on cell-cycle distribution” value is “higher tetraploid-G2/M phase arrest than those incubated with PTX”. Moreover, in the series with A549 tumor, the “decrease of tumor volume compared with PTX” value was 1.51–1.77 fold and the tumor inhibition rate came out at 63.32%. For the same molecule, in the series on A549T tumor, the “tumor growth (tumor volume) compared with the control” value is “considerable antitumor effect” and the tumor inhibition rate came out at 42.47%.

On to `N=C(N)NCCC[C@H](NC(=O)[C@H](CCCNC(=N)N)NC(=O)[C@H](CCCNC(=N)N)NC(=O)[C@H](CCC(N)=O)NC(=O)[C@H](CCCNC(=N)N)NC(=O)[C@H](CCCNC(=N)N)NC(=O)[C@H](CCCCN)NC(=O)[C@H](CCCCN)NC(=O)[C@H](CCCNC(=N)N)NC(=O)CNC(=O)[C@H](Cc1ccc(O)cc1)NC(=O)CNC(=O)CNC(=O)CNC(=O)[C@@H](N)CS)C(=O)O` [TAT, reference compound], for which the “toxicity of the CPPs alone (cell viability)” value in the series on A549 cells [1] (A549 cells, MTT, same molar concentrations as PTX) was “No harmful effect”; in the series with A549T cells [2] (A549T cells, MTT, same molar concentrations as PTX), “No harmful effect”.

As for “VSRRRRRRGGRRRR [LMWP, reference compound]”, the “toxicity of the CPPs alone (cell viability)” value in the series with A549 cells [1] and in the series with A549T cells [2] was “No harmful effect” throughout.

On to `CC(=O)O[C@H]1C(=O)[C@@]2(C)[C@H]([C@H](OC(=O)c3ccccc3)[C@]3(O)C[C@H](OC(=O)[C@H](OC(=O)CCC(=O)N[C@H](C(=O)N[C@@H](CO)C(=O)N[C@@H](CCCNC(=N)N)C(=O)N[C@@H](CCCNC(=N)N)C(=O)N[C@@H](CCCNC(=N)N)C(=O)N[C@@H](CCCNC(=N)N)C(=O)N[C@@H](CCCNC(=N)N)C(=O)N[C@@H](CCCNC(=N)N)C(=O)NCC(=O)NCC(=O)N[C@@H](CCCNC(=N)N)C(=O)N[C@@H](CCCNC(=N)N)C(=O)N[C@@H](CCCNC(=N)N)C(=O)N[C@@H](CCCNC(=N)N)C(=O)O)C(C)C)[C@@H](NC(=O)c4ccccc4)c4ccccc4)C(C)=C1C3(C)C)[C@]1(OC(C)=O)CO[C@@H]1C[C@@H]2O` [PTX-LMWP] ({Paclitaxel(2'-O-succinyl)}-VSRRRRRRGGRRRR-OH; N-terminus and C-terminus assumed), for which, in the series with A549 cells [6], the “cellular uptake against incubation time” value is recorded as “stronger than that of PTX-TAT”. For the same molecule, the “IC50 value as % of the IC50 of PTX” value in the series with A549 cells [1] (A549 cells, MTT) amounted to 33.5%. Moreover, the “IC50 value as % of the IC50 of PTX” value in the series with A549T cells [2] (A549T cells, MTT) is 21.5%. Moreover, the “IC50 value compared with PTX-TAT” value in the series with A549T cells [2] (A549T cells, MTT, p < 0.01) is recorded as “remarkably lower than that of PTX-TAT”. Moreover, in the series on A549 cells [3], the “percentage of late apoptotic cells” value was 84.03%. For the same molecule, in the series with A549T cells [4], the “percentage of early apoptotic cells (PI−/annexin V+)” value came to 38.10% and the “percentage of late apoptotic cells” value amounted to 55.75%. In addition, the “effect on mitochondrial membrane potential (Δψm), ratio of red to green JC-1 fluorescence” value in the series with A549T cells [7] is recorded as “significant breakdown of the Δψm compared with the PTX-TAT treatment”. Further, the “effect on cell-cycle distribution” value in the series on A549T cells [5] is “limited generation of tetraploids but a large number of cells in diploid-S phase cell-cycle arrest”. Further, in the series on A549 tumor, the “decrease of tumor volume compared with PTX” value is 1.45–1.80 fold and the tumor inhibition rate came to 62.92%. In the series on A549T tumor, the “tumor growth (tumor volume) compared with the control” value was “considerable antitumor effect” and the tumor inhibition rate is recorded as 43.13%.
